Test results reported in US20200017495A1, “NOVEL HETEROCYCLIC COMPOUNDS AND THEIR USE IN PREVENTING OR TREATING BACTERIAL INFECTIONS” (priority 2017, published 2020).

System: Escherichia coli (ECO) isolates
Test: MIC of compounds alone and combined with antibacterials, broth microdilution (CLSI)
Format: cell-based
Outline: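 Broth microdilution in cation-adjusted Mueller-Hinton broth, inoculum 5.10^5 CFU/mL, 16-20 h at 35° C in ambient air, on genotyped isolates. Compound MIC, alone or with an antibacterial, taken visually as lowest concentration preventing growth; antibacterial MIC determined at each compound concentration.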

C=CC1=C(C(=O)O)N2C(=O)[C@@H](NC(=O)/C(=N\OCC(=O)O)c3csc(N)n3)[C@H]2SC1 [FIX, Cefixime]
MIC ATB in combination (ECO 190317, AF3 @ 8 μg/mL): <0.25 µg/mL | MIC ATB in combination (ECO 190317, CLA @ 4 μg/mL): 0.5 µg/mL | MIC ATB in combination (ECO 190457, AF2 @ 8 μg/mL): <0.25 µg/mL | MIC ATB in combination (ECO 190457, AF3 @ 8 μg/mL): <0.25 µg/mL | MIC ATB in combination (ECO 190457, CLA @ 4 μg/mL): 0.5 µg/mL | MIC ATB in combination (ECO 190549, AF2 @ 8 μg/mL): <0.25 µg/mL | MIC ATB in combination (ECO 190549, AF3 @ 8 μg/mL): <0.25 µg/mL | MIC ATB in combination (ECO 190549, CLA @ 4 μg/mL): 0.5 µg/mL | MIC ATB in combination (ECO 200159, AF2 @ 8 μg/mL): <0.25 µg/mL | MIC ATB in combination (ECO 200159, AF3 @ 8 μg/mL): <0.25 µg/mL | MIC ATB in combination (ECO 200159, CLA @ 4 μg/mL): <=0.25 μg/mL | MIC ATB in combination (ECO 200259, AF2 @ 8 μg/mL): <0.25 µg/mL | MIC ATB in combination (ECO 200259, AF3 @ 8 μg/mL): <0.25 µg/mL | MIC ATB in combination (ECO 200259, CLA @ 4 μg/mL): <=0.25 μg/mL | MIC ATB in combination (ECO 200344, AF2 @ 8 μg/mL): <0.25 µg/mL | MIC ATB in combination (ECO 200344, AF3 @ 8 μg/mL): <=0.25 μg/mL | MIC ATB in combination (ECO 200344, CLA @ 4 μg/mL): 0.5 µg/mL | MIC ATB in combination (ECO 260096, AF2 @ 8 μg/mL): <=0.25 μg/mL | MIC ATB in combination (ECO 260096, AF3 @ 8 μg/mL): <=0.25 μg/mL | MIC ATB in combination (ECO 260096, CLA @ 4 μg/mL): 1 µg/mL | MIC ATB in combination (ECO 260304, AF2 @ 8 μg/mL): <0.25 µg/mL | MIC ATB in combination (ECO 260304, AF3 @ 8 μg/mL): <0.25 µg/mL | MIC ATB in combination (ECO 260304, CLA @ 4 μg/mL): 0.5 µg/mL | MIC ATB in combination (ECO 260508, AF2 @ 8 μg/mL): <0.25 µg/mL | MIC ATB in combination (ECO 260508, AF3 @ 8 μg/mL): <0.25 µg/mL | MIC ATB in combination (ECO 260508, CLA @ 4 μg/mL): 0.5 µg/mL | MIC ATB in combination (ECO RGN238, AF2 @ 8 μg/mL): <0.25 µg/mL | MIC ATB in combination (ECO RGN238, AF3 @ 8 μg/mL): <0.25 µg/mL | MIC ATB in combination (ECO RGN238, CLA @ 4 μg/mL): <=0.25 μg/mL | MIC ATB in combination (ECO UFR15, AF2 @ 8 μg/mL): <0.25 µg/mL | MIC ATB in combination (ECO UFR15, AF3 @ 8 μg/mL): <0.25 µg/mL | MIC ATB in combination (ECO UFR15, CLA @ 4 μg/mL): 1 µg/mL | MIC ATB in combination (ECO UFR16, AF2 @ 8 μg/mL): <0.25 µg/mL | MIC ATB in combination (ECO UFR16, AF3 @ 8 μg/mL): <0.25 µg/mL | MIC ATB in combination (ECO UFR16, CLA @ 4 μg/mL): 4 µg/mL | MIC ATB in combination (ECO UFR17, AF2 @ 8 μg/mL): >128 µg/mL | MIC ATB in combination (ECO UFR17, AF3 @ 8 μg/mL): >128 µg/mL | MIC ATB in combination (ECO UFR17, CLA @ 4 μg/mL): >128 µg/mL | MIC ATB in combination (ECO UFR18, AF2 @ 8 μg/mL): <0.25 µg/mL | MIC ATB in combination (ECO UFR18, AF3 @ 8 μg/mL): <0.25 µg/mL | MIC ATB in combination (ECO UFR18, CLA @ 4 μg/mL): >128 µg/mL | MIC ATB in combination (ECO UFR19, AF2 @ 8 μg/mL): <0.25 µg/mL | MIC ATB in combination (ECO UFR19, AF3 @ 8 μg/mL): <0.25 µg/mL | MIC ATB in combination (ECO UFR19, CLA @ 4 μg/mL): >128 µg/mL | MIC ATB in combination (ECO UFR32, AF2 @ 8 μg/mL): <0.25 µg/mL | MIC ATB in combination (ECO UFR32, AF3 @ 8 μg/mL): <0.25 µg/mL | MIC ATB in combination (ECO UFR32, CLA @ 4 μg/mL): 1 µg/mL | MIC ATB in combination (ECO UFR39, AF2 @ 8 μg/mL): <0.25 µg/mL | MIC ATB in combination (ECO UFR39, AF3 @ 8 μg/mL): <0.25 µg/mL | MIC ATB in combination (ECO UFR39, CLA @ 4 μg/mL): >128 µg/mL | MIC ATB in combination (ECO UFR41, AF2 @ 8 μg/mL): <0.25 µg/mL | MIC ATB in combination (ECO UFR41, AF3 @ 8 μg/mL): <0.25 µg/mL | MIC ATB in combination (ECO UFR41, CLA @ 4 μg/mL): >128 µg/mL | MIC ATB in combination (ECO UFR45, AF2 @ 8 μg/mL): <0.25 µg/mL | MIC ATB in combination (ECO UFR45, AF3 @ 8 μg/mL): <0.25 µg/mL | MIC ATB in combination (ECO UFR45, CLA @ 4 μg/mL): 32 µg/mL | MIC ATB in combination (ECO UFR52, AF2 @ 8 μg/mL): >128 µg/mL | MIC ATB in combination (ECO UFR52, AF3 @ 8 μg/mL): >128 µg/mL | MIC ATB in combination (ECO UFR52, CLA @ 4 μg/mL): >128 µg/mL | MIC ATB in combination (ECO UFR61O, AF2 @ 8 μg/mL): <=0.25 μg/mL | MIC ATB in combination (ECO UFR61O, AF3 @ 8 μg/mL): <0.25 µg/mL | MIC ATB in combination (ECO UFR61O, CLA @ 4 μg/mL): 32 µg/mL | MIC ATB in combination (ECO UFR62, AF2 @ 8 μg/mL): <0.25 µg/mL | MIC ATB in combination (ECO UFR62, AF3 @ 8 μg/mL): <0.25 µg/mL | MIC ATB in combination (ECO UFR62, CLA @ 4 μg/mL): 32 µg/mL | MIC ATB in combination (ECO UFR74, AF2 @ 8 μg/mL): <0.25 µg/mL | MIC ATB in combination (ECO UFR74, AF3 @ 8 μg/mL): <0.25 µg/mL | MIC ATB in combination (ECO UFR74, CLA @ 4 μg/mL): >128 µg/mL | MIC ATB in combination (ECO UFR86, AF2 @ 8 μg/mL): 0.5 µg/mL | MIC ATB in combination (ECO UFR86, AF3 @ 8 μg/mL): 0.5 µg/mL | MIC ATB in combination (ECO UFR86, CLA @ 4 μg/mL): 2 µg/mL | MIC ATB in combination (ECO UFR174, AF2 @ 8 μg/mL): <0.25 µg/mL | MIC ATB in combination (ECO UFR174, AF3 @ 8 μg/mL): <0.25 µg/mL | MIC ATB in combination (ECO UFR174, CLA @ 4 μg/mL): 2 µg/mL | MIC ATB in combination (ECO UFR175, AF2 @ 8 μg/mL): <0.25 µg/mL | MIC ATB in combination (ECO UFR175, AF3 @ 8 μg/mL): <=0.25 μg/mL | MIC ATB in combination (ECO UFR175, CLA @ 4 μg/mL): 16 µg/mL | MIC ATB in combination (ECO UFR176, AF2 @ 8 μg/mL): <0.25 µg/mL | MIC ATB in combination (ECO UFR176, AF3 @ 8 μg/mL): <0.25 µg/mL | MIC ATB in combination (ECO UFR176, CLA @ 4 μg/mL): 32 µg/mL | MIC ATB in combination (ECO UFR184, AF2 @ 8 μg/mL): <0.25 µg/mL | MIC ATB in combination (ECO UFR184, AF3 @ 8 μg/mL): <0.25 µg/mL | MIC ATB in combination (ECO UFR184, CLA @ 4 μg/mL): >128 µg/mL | MIC ATB in combination (ECO UFR208, AF2 @ 8 μg/mL): >128 µg/mL | MIC ATB in combination (ECO UFR208, AF3 @ 8 μg/mL): >128 µg/mL | MIC ATB in combination (ECO UFR208, CLA @ 4 μg/mL): >128 µg/mL | MIC ATB in combination (ECO UFR209, AF2 @ 8 μg/mL): <0.25 µg/mL | MIC ATB in combination (ECO UFR209, AF3 @ 8 μg/mL): <0.25 µg/mL | MIC ATB in combination (ECO UFR209, CLA @ 4 μg/mL): 1 µg/mL | MIC ATB in combination (ECO UFR210, AF2 @ 8 μg/mL): <0.25 µg/mL | MIC ATB in combination (ECO UFR210, AF3 @ 8 μg/mL): <0.25 µg/mL | MIC ATB in combination (ECO UFR210, CLA @ 4 μg/mL): 0.5 µg/mL | MIC ATB in combination (ECO UFR211, AF2 @ 8 μg/mL): <0.25 µg/mL | MIC ATB in combination (ECO UFR211, AF3 @ 8 μg/mL): <0.25 µg/mL | MIC ATB in combination (ECO UFR211, CLA @ 4 μg/mL): 2 µg/mL | MIC ATB in combination (ECO UFR212, AF2 @ 8 μg/mL): <0.25 µg/mL | MIC ATB in combination (ECO UFR212, AF3 @ 8 μg/mL): <0.25 µg/mL | MIC ATB in combination (ECO UFR212, CLA @ 4 μg/mL): >128 µg/mL | MIC ATB in combination (ECO URF20, AF2 @ 8 μg/mL): <=0.25 μg/mL
